# Laboratory results: patent EP0450065A1, “ANTIVIRAL AGENT” (priority 1988, dated 1990)
# Assays:
# Type in all cases: cell-based
# [1] = tested on: herpes simplex virus type 2 (169 strain); assay: 50% Tissue culture infective dose (TCID50), Read-Munch method, negative logarithm of virus dilution; set-up: key to Cytopathic effect [CPE] (5days) △TCID50 / Cytopathic effect [CPE] (6days) △TCID50 / Cytopathic effect [CPE] (3days) △TCID50: difference in -log TCID50 from untreated control; key to Cytopathic effect [CPE] (5days) TCID50 / Cytopathic effect [CPE] (3days) TCID50 / Cytopathic effect [CPE] (6days) TCID50: negative log of maximum virus dilution infecting 50% of tissues; conditions: HSV-2 (169); for Cytopathic effect [CPE] (3days) △TCID50 / Cytopathic effect [CPE] (5days) △TCID50 / Cytopathic effect [CPE] (6days) △TCID50: difference from control
# Protocol: The amount of virus infecting 50% of tissues (TCID₅₀) was determined by the Read-Munch method and expressed in negative logarithm of the maximum radio of dilution of virus. The difference of the amount thus determined from the amount found in the control (omitting the treatment with a chemical) was reported as ΔTCID₅₀. A sample whose ΔCPE's found on the last day of observation and on each of the days spent for the observation exceeded 1.0 was evaluated as effective.
# In vitro antiviral activity of Compound A against herpes simplex virus type 2 (169 strain) The test was carried out by following the procedure of Example 3.
# [2] = tested on: herpes simplex virus type 1 (HF strain); assay: Control of CPE (cytopathic effect) manifestation in vero cells; set-up: key to Cytopathic effect [CPE] (3days) Average / Cytopathic effect [CPE] (5days) Average / Cytopathic effect [CPE] (6days) Average: CPE score: 0 none, 0.5 minute spots, 1 = 25%, 2 = 50%, 3 = ≥75% cells; key to Cytopathic effect [CPE] (3days) △CPE / Cytopathic effect [CPE] (5days) △CPE / Cytopathic effect [CPE] (3days) ΔCPE / Cytopathic effect [CPE] (6days) ΔCPE: ΔCPE = difference of average CPE score (0–3 scale) from control; conditions: for Cytopathic effect [CPE] (3days) △CPE / Cytopathic effect [CPE] (5days) △CPE / Cytopathic effect [CPE] (3days) ΔCPE / Cytopathic effect [CPE] (6days) ΔCPE: difference from control
# Protocol: In vitro antiviral activity of Compound A against herpes simplex virus type 1 (HF strain) Compound A was tested for antiviral effect by the following two methods.
# (§1) Vero cells cultured and grown in a monolayer on microplates to test for cytopathic effect due to viral infection, with solutions of Compound A diluted to varying ratios and solutions of virus diluted to varying ratios added severally thereto in a volume of 0.1 ml, were cultured under the conditions of 5% CO₂ and 37°C and were examined for CPE manifestation under a microscope. The observation was continued for five to six days.
# (§2) The degree of CPE brought about by viral infection was rated on the five-point scale, wherein 3 stands for CPE observed on not less than 75% of cultured cells, 2 for CPE observed on 50% of cultured cells, 1 for CPE observed on 25% of cultured cells, 0.5 for occurrence of one to two extremely minute DPE spots, and 0 for perfect absence of recognizable CPE. The CPE scores obtained at the four holes in each microplate were averaged and the difference of the average from the average obtained in the control (omitting the treatment with a chemical) was reported as ΔCPE.
# In vitro antiviral effect of Compound A against herpes simplex virus type 1 (HF strain) The test was carried out by following the procedure of Example 3.
# [3] = tested on: herpes simplex virus type 1 (KOS strain); assay: as above; conditions: 100 μg/ml, HSV-1 (KOS), Example 7
# Protocol: as §1, §2
# Antiviral activity of Compound A and Compound B against herpes simplex virus type 1 (KOS strain) The test was carried out by following the procedure of Example 3.
# [4] = 10 μg/ml, HSV-1 (HF), Example 3
# [5] = 20 μg/ml, HSV-1 (HF), Example 3
# [6] = 50 μg/ml, HSV-1 (HF), Example 3
# [7] = 100 μg/ml, HSV-1 (HF strain), Example 5
# [8] = 100 μg/ml, HSV-1 (HF), Example 3
# [9] = 200 μg/ml, HSV-1 (HF strain), Example 5
substance,measurement,setting,value
K₅BW₁₂O₄₀.15H₂O [Compound A],Cytopathic effect [CPE] (3days) TCID50,"[1]; 5 μg/ml, Example 4",6.5
same,Cytopathic effect [CPE] (5days) TCID50,"[1]; 5 μg/ml, Example 4",6.7
same,Cytopathic effect [CPE] (3days) △TCID50,"[1]; 5 μg/ml, Example 4",0
same,Cytopathic effect [CPE] (5days) △TCID50,"[1]; 5 μg/ml, Example 4",0.2
same,Cytopathic effect [CPE] (3days) TCID50,"[1]; 10 μg/ml, Example 4",6.3
same,Cytopathic effect [CPE] (5days) TCID50,"[1]; 10 μg/ml, Example 4",6.3
same,Cytopathic effect [CPE] (3days) △TCID50,"[1]; 10 μg/ml, Example 4",0.2
same,Cytopathic effect [CPE] (5days) △TCID50,"[1]; 10 μg/ml, Example 4",0.2
same,Cytopathic effect [CPE] (3days) TCID50,"[1]; 20 μg/ml, Example 4",6.5
same,Cytopathic effect [CPE] (5days) TCID50,"[1]; 20 μg/ml, Example 4",6.2
same,Cytopathic effect [CPE] (3days) △TCID50,"[1]; 20 μg/ml, Example 4",0
same,Cytopathic effect [CPE] (5days) △TCID50,"[1]; 20 μg/ml, Example 4",0.3
same,Cytopathic effect [CPE] (3days) TCID50,"[1]; 50 μg/ml, Example 4",5.5
same,Cytopathic effect [CPE] (5days) TCID50,"[1]; 50 μg/ml, Example 4",5.5
same,Cytopathic effect [CPE] (3days) △TCID50,"[1]; 50 μg/ml, Example 4",1.0
same,Cytopathic effect [CPE] (5days) △TCID50,"[1]; 50 μg/ml, Example 4",1.0
same,Cytopathic effect [CPE] (3days) TCID50,"[1]; 100 μg/ml, Example 4",3.5
same,Cytopathic effect [CPE] (5days) TCID50,"[1]; 100 μg/ml, Example 4",3.5
same,Cytopathic effect [CPE] (3days) △TCID50,"[1]; 100 μg/ml, Example 4",3.0
same,Cytopathic effect [CPE] (5days) △TCID50,"[1]; 100 μg/ml, Example 4",3.0
same,Cytopathic effect [CPE] (3days) TCID50,"[1]; 100 μg/ml, Example 6",< 3.5
same,Cytopathic effect [CPE] (6days) TCID50,"[1]; 100 μg/ml, Example 6",< 3.5
same,Cytopathic effect [CPE] (3days) △TCID50,"[1]; 100 μg/ml, Example 6",> 3.2
same,Cytopathic effect [CPE] (6days) △TCID50,"[1]; 100 μg/ml, Example 6",> 3.2
same,Cytopathic effect [CPE] (3days) TCID50,"[1]; 200 μg/ml, Example 6",< 3.5
same,Cytopathic effect [CPE] (6days) TCID50,"[1]; 200 μg/ml, Example 6",< 3.5
same,Cytopathic effect [CPE] (3days) △TCID50,"[1]; 200 μg/ml, Example 6",> 3.2
same,Cytopathic effect [CPE] (6days) △TCID50,"[1]; 200 μg/ml, Example 6",> 3.2
same,Cytopathic effect [CPE] (3days) Average,"[2]; 5 μg/ml, HSV-1 (HF), Example 3",1.25
same,Cytopathic effect [CPE] (5days) Average,"[2]; 5 μg/ml, HSV-1 (HF), Example 3",1.75
same,Cytopathic effect [CPE] (3days) △CPE,"[2]; 5 μg/ml, HSV-1 (HF), Example 3",0.25
same,Cytopathic effect [CPE] (5days) △CPE,"[2]; 5 μg/ml, HSV-1 (HF), Example 3",0
same,Cytopathic effect [CPE] (3days) Average,[2]; [4],1.25
same,Cytopathic effect [CPE] (5days) Average,[2]; [4],1.25
same,Cytopathic effect [CPE] (3days) △CPE,[2]; [4],0.25
same,Cytopathic effect [CPE] (5days) △CPE,[2]; [4],0.5
same,Cytopathic effect [CPE] (3days) Average,[2]; [5],1.25
same,Cytopathic effect [CPE] (5days) Average,[2]; [5],1.5
same,Cytopathic effect [CPE] (3days) △CPE,[2]; [5],0.25
same,Cytopathic effect [CPE] (5days) △CPE,[2]; [5],0.25
same,Cytopathic effect [CPE] (3days) Average,[2]; [6],1.5
same,Cytopathic effect [CPE] (5days) Average,[2]; [6],2.0
same,Cytopathic effect [CPE] (3days) △CPE,[2]; [6],0
same,Cytopathic effect [CPE] (5days) △CPE,[2]; [6],0.25
same,Cytopathic effect [CPE] (3days) Average,[2]; [7],0.125
same,Cytopathic effect [CPE] (6days) Average,[2]; [7],0.5
same,Cytopathic effect [CPE] (3days) ΔCPE,[2]; [7],2.625
same,Cytopathic effect [CPE] (6days) ΔCPE,[2]; [7],2.5
same,Cytopathic effect [CPE] (3days) Average,[2]; [8],0.75
same,Cytopathic effect [CPE] (5days) Average,[2]; [8],1.0
same,Cytopathic effect [CPE] (3days) △CPE,[2]; [8],0.375
same,Cytopathic effect [CPE] (5days) △CPE,[2]; [8],0.75
same,Cytopathic effect [CPE] (3days) Average,[2]; [9],0
same,Cytopathic effect [CPE] (6days) Average,[2]; [9],0
same,Cytopathic effect [CPE] (3days) ΔCPE,[2]; [9],2.75
same,Cytopathic effect [CPE] (6days) ΔCPE,[2]; [9],3.0
same,Cytopathic effect [CPE] (3days) Average,[3],0
same,Cytopathic effect [CPE] (5days) Average,[3],0
same,Cytopathic effect [CPE] (3days) △CPE,[3]; difference from control,2.0
